Tested on: SARS-CoV-2
Experiment: microbe, parasite or virus in culture
Conditions: Severe acute respiratory syndrome coronavirus 2, Vero C1008, 48 h

| Structure (SMILES) | IC50 | IC50 (read-out: pIC50 (converted)) |
| --- | --- | --- |
| Nc1ccn([C@H]2C[C@H](O)[C@@H](CO)O2)c(=O)n1 [DOXECITINE] | > 20 µM | > 20 µM |
| CCCCCCCN(CC)CCCC(O)c1ccc(NS(C)(=O)=O)cc1 (configuration not stated) [IBUTILIDE] | > 20 µM | > 20 µM |
| CC(CCC(=O)O)C1CCC2C3C(=O)CC4CC(=O)CCC4(C)C3CC(=O)C12C (configuration not stated) | > 20 µM | > 20 µM |
| CCCNCC(O)COc1ccccc1C(=O)CCc1ccccc1 (configuration not stated) [PROPAFENONE] | > 20 µM | > 20 µM |
| CNC(=O)Oc1cccc2ccccc12 [CARBARIL] | > 20 µM | > 20 µM |
| N=C(N)N1CCc2ccccc2C1 [DEBRISOQUIN] | > 20 µM | > 20 µM |
| CN1CC[C@@H](c2c(O)cc(O)c3c(=O)cc(-c4ccccc4Cl)oc23)[C@@H]1CO | > 20 µM | > 20 µM |
| CCn1nc(C(=O)O)c(=O)c2cc3c(cc21)OCO3 [CINOXACIN] | > 20 µM | > 20 µM |
| CCCCCCCCCCCCCCCC(=O)O [PALMITIC ACID] | > 20 µM | > 20 µM |
| CN(C)c1nc(N(C)C)nc(N(C)C)n1 [ALTRETAMINE] | > 20 µM | > 20 µM |
| CNC(C)Cc1ccccc1OC (configuration not stated) [METHOXYPHENAMINE] | > 20 µM | > 20 µM |
| CCCC(=O)Nc1ccc(OCC(O)CNC(C)C)c(C(C)=O)c1 (configuration not stated) [ACEBUTOLOL] | > 20 µM | > 20 µM |
| CC[C@H]1OC(=O)[C@H](C)C(=O)[C@H](C)[C@@H](O[C@@H]2O[C@H](C)C[C@H](N(C)C)[C@H]2O)[C@](C)(OCC=Cc2cnc3ccccc3c2)C[C@@H](C)C(=O)[C@H](C)[C@H]2NC(=O)O[C@@]21C [CETHROMYCIN] | > 20 µM | > 20 µM |
| CCC(CC)[C@@H](c1ccc(Nc2nc3ccccc3s2)cc1)n1cncn1 | > 20 µM | > 20 µM |
| c1cncc(C2CCCCN2)c1 (stereo not drawn) [DL-ANABASINE] | > 20 µM | > 20 µM |
| Cn1c(NCCN(CCO)CCCc2ccc([N+](=O)[O-])cc2)cc(=O)n(C)c1=O [NIFEKALANT] | > 20 µM | > 20 µM |
| O=c1c(-c2ccc(O)cc2)coc2cc(O)cc(O)c12 [GENISTEIN] | > 20 µM | > 20 µM |
| O=C(/C=C/c1cccc(S(=O)(=O)Nc2ccccc2)c1)NO [BELINOSTAT] | > 20 µM | > 20 µM |
| CN(C)CCO[C@@H](c1ccc(Cl)cc1)c1ccccn1 [ROTOXAMINE] | > 20 µM | > 20 µM |
| CN1C2CCC1CC(OC(c1ccccc1)c1ccccc1)C2 (configuration not stated) | > 20 µM | > 20 µM |
| C=CCC1(C(C)CCC)C(=O)NC(=O)NC1=O (configuration not stated) [SECOBARBITAL] | > 20 µM | > 20 µM |

| Structure (SMILES) | IC50 | IC50 (read-out: pIC50 (converted)) |
| --- | --- | --- |
| CN(C(=O)CO/N=C(/c1ccccc1)c1ccc2c(c1)CN1CC(=O)NC1=N2)C1CCCCC1 | > 20 µM | > 20 µM |
| CC[C@@H](c1cccc(O)c1)[C@@H](C)CN(C)C [TAPENTADOL] | > 20 µM | > 20 µM |
| CC(C)c1cnn2c(NCc3ccccc3)cc(NC[C@H]3CCNC[C@@H]3O)nc12 [CT-7001] | > 20 µM | > 20 µM |
| O[C@](Cn1cncn1)(Cn1cnc(/C=C/c2ccc(OCC(F)(F)C(F)F)cc2)n1)c1ccc(F)cc1F | > 20 µM | > 20 µM |
| NC(CSCC(=O)O)C(=O)O (configuration not stated) | > 20 µM | > 20 µM |
| C=C(C)[C@@H]1CC[C@]2(C(=O)O)CC[C@]3(C)[C@H](CC[C@@H]4[C@@]5(C)CC[C@H](OC(=O)CC(C)(C)C(=O)O)C(C)(C)[C@@H]5CC[C@]43C)[C@@H]12 [BEVIRIMAT] | > 20 µM | > 20 µM |
| CCCC/N=C(/c1cc(Cl)ccc1O)c1ccccc1Cl [FENGABINE] | > 20 µM | > 20 µM |
| O=C(OCC(O)CO)c1ccccc1Nc1ccnc2c(C(F)(F)F)cccc12 (configuration not stated) [FLOCTAFENINE] | > 20 µM | > 20 µM |
| OCCN(CCO)c1nc(N2CCCCC2)c2nc(N(CCO)CCO)nc(N3CCCCC3)c2n1 [DIPYRIDAMOLE] | > 20 µM | > 20 µM |
| O=C(CN1C(=O)C2(CCCC2)NC[C@H]1c1cc(F)cc(F)c1)Nc1ccc2c(c1)C[C@@]1(C2)C(=O)Nc2ncccc21 [MK3207] | > 20 µM | > 20 µM |
| C#C[C@]1(O)CC[C@H]2[C@@H]3CCC4=CC(=O)CCC4=C3C=C[C@@]21CC [GESTRINONE] | > 20 µM | > 20 µM |
| O=C(Nc1cnccc1Cl)N1CCN(Cc2ccc3c(c2)OC(F)(F)O3)CC1 [JNJ-42165279] | > 20 µM | > 20 µM |
| COc1cc(C(=O)C(=O)N(C)[C@@H](Cc2ccc(Cl)cc2)C(=O)N(Cc2ccccc2)C(CCc2ccncc2)CCc2ccncc2)cc(OC)c1OC [TIMCODAR] | > 20 µM | > 20 µM |
| O=C1[C@@H]2[C@H]3CC[C@H](C3)[C@@H]2C(=O)N1CCCCN1CCN(c2ncccn2)CC1 [TANDOSPIRONE] | > 20 µM | > 20 µM |
| OC[C@H]1NC[C@@H](O)[C@@H](O)[C@@H]1O [DEOXYMANNOJIRIMYCIN] | > 20 µM | > 20 µM |
| COc1cc2nccc(Oc3ccc(NC(=O)NC4CC4)c(Cl)c3)c2cc1C(N)=O [LENVATINIB] | > 20 µM | > 20 µM |
| Cc1nccc2c1[nH]c1ccccc12 [HARMAN] | > 20 µM | > 20 µM |
| CC[N+](C)(CC)CCOC(=O)C(O)(c1ccccc1)c1ccccc1 [METHYLBENACTYZIUM] | > 20 µM | > 20 µM |
| CC(=O)O[C@H]1C(=O)[C@@]2(C)C([C@H](OC(=O)c3ccccc3)[C@]3(O)C[C@H](OC(=O)[C@H](O)[C@@H](NC(=O)c4ccccc4)c4ccccc4)C(C)=C1C3(C)C)[C@]1(OC(C)=O)CO[C@@H]1C[C@@H]2O (some centres not stated) | > 20 µM | > 20 µM |
| CC(=O)Oc1cc(C)c(OC(C)=O)c2ccccc12 [ACETOMENAPHTHONE] | > 20 µM | > 20 µM |
| COc1ccc(S(=O)(=O)N2C(=O)[C@@](c3ccccc3OC)(N3C[C@H](O)C[C@H]3C(=O)N(C)C)c3cc(Cl)ccc32)c(OC)c1 | > 20 µM | > 20 µM |

| Structure (SMILES) | IC50 | IC50 (read-out: pIC50 (converted)) |
| --- | --- | --- |
| CC/C(=C(\c1ccc(OCCN(C)C)cc1)c1cccc(O)c1)c1ccccc1 | > 20 µM | > 20 µM |
| C/C=C1/C[N+]2(C)CCC34C(=C(C=O)[C@H]1C[C@@H]32)Nc1ccccc14 (some centres not stated) | > 20 µM | > 20 µM |
| CCOC(=O)Nc1ccc(SC[C@H]2CO[C@](Cn3ccnc3)(c3ccc(Cl)cc3Cl)O2)cc1 | > 20 µM | > 20 µM |
| OC1CCCc2nc3ccccc3c(NCc3ccccc3)c21 (configuration not stated) [SURONACRINE] | > 20 µM | > 20 µM |
| CN1C(=O)CC2(CCN(CCCC(=O)c3ccc(F)cc3)CC2)C1=O [ROXOPERONE] | > 20 µM | > 20 µM |
| CC1=CC(=O)c2c(O)cccc2C1=O [PLUMBAGIN] | > 20 µM | > 20 µM |
| CC(=O)OCC(CCn1cnc2cnc(N)nc21)COC(C)=O [FAMCICLOVIR] | > 20 µM | > 20 µM |
| NC(=O)c1cccnc1 [NIACINAMIDE] | > 20 µM | > 20 µM |
| Cc1ccc(-c2cc(C(F)(F)F)nn2-c2ccc(S(N)(=O)=O)cc2)cc1 [CELECOXIB] | > 20 µM | > 20 µM |
| CC(C)[C@H](N)C(=O)OCCOCn1cnc2c(=O)nc(N)[nH]c21 [VALACYCLOVIR] | > 20 µM | > 20 µM |
| C#C[C@]1(O)CC[C@H]2[C@@H]3CCC4=C(CCC(=O)C4)[C@H]3CC[C@@]21C [NORETHYNODREL] | > 20 µM | > 20 µM |
| Cc1scc2c1N(C(=O)CN1CCN(C)CC1)c1ccccc1NC2=O [TELENZEPINE] | > 20 µM | > 20 µM |
| COc1c2ccoc2nc2c(OC)c(OC[C@@H](O)C(C)(C)O)ccc12 | > 20 µM | > 20 µM |
| CC(=O)N[C@@H](Cc1ccccc1)C(=O)N[C@H]1CCCNC(=O)[C@H](CCCN=C(N)N)NC(=O)[C@H](Cc2c[nH]c3ccccc23)NC(=O)[C@@H](CC2CCCCC2)NC(=O)[C@@H]2CCCN2C1=O | > 20 µM | > 20 µM |
| [N-]=[N+]=N[C@]1(CO)O[C@@H](n2ccc(N)nc2=O)[C@@H](O)[C@@H]1O | > 20 µM | > 20 µM |
| CCCC(C)(COC(N)=O)COC(=O)NC(C)C (configuration not stated) [CARISOPRODOL] | > 20 µM | > 20 µM |
| Cc1ccc(O)cc1 [p-CRESOL] | > 20 µM | > 20 µM |
| CN1C2CCC1CC(O)C2 (configuration not stated) | > 20 µM | > 20 µM |
| CCCOc1ccc2[nH]c(NC(=O)OC)nc2c1 [OXIBENDAZOLE] | > 20 µM | > 20 µM |
